Read-outs that look alike come from different tables or passages of the source.
Tests used:
[1] = Patient case example, LDL cholesterol (Example 14); assay type: in vivo, humans; conditions: person, baseline 140 mg/dL, over several months
[2] = system: retinal ganglion cell layer (GCL)
Description: After 3 months, mice were sacrificed, and their eyes were carefully isolated by microdissection. The eyes were fixed in formalin and sectioned to allow visualization of the retina.

[3] = system: inflammatory cytokines in OA synovium; test: Multiplex cytokine analysis of synovium from DMM joints; assay type: in vivo, C57BL6 (B6) mice; conditions: HCQ sulfate 100 mg/kg/day or atorvastatin calcium 40 mg/kg/day, 3 months; vs vehicle
Procedure: FIG. 14. […] 3 months after surgery, the mice were sacrificed and the synovium of the operated joint isolated. The collected synovial membrane tissues were used to generate protein lysates, on which multiplex cytokine analysis was performed using the Luminex System and the Bio-Rad BioPlex 23plex mouse cytokine detection kit. Each sample was run in triplicate. […] (A) Heatmap presenting the relative levels (as compared to mean levels in the vehicle-control treated group). (B) Bar-graph display of mean cytokine levels for the indicated treatment groups.
After 3 months, mice were sacrificed, their joints harvested, and synovial tissue isolated from the joint by microdissection. The synovial tissues were homogenized and centrifuged, and the resulting supernatants were assayed for levels of inflammatory cytokines by using a multiplex bead-based cytokine assay (BioRad Laboratories, Hercules, Calif.).

[4] = oral; cited from earlier work
[5] = cited from earlier work
[6] = currently FDA-approved doses; cited from earlier work
[7] = system: osteoarthritis (OA) induced by destabilization of the medial meniscus (DMM); test: DMM mouse model of OA, histological scoring of stifle joints; assay type: in vivo, C57BL6 (B6) mice; conditions: Example 1; HCQ sulfate 100 mg/kg/day and/or atorvastatin calcium 40 mg/kg/day, oral gavage, 12 weeks; t test
Procedure: Experiments were performed under protocols approved by the Stanford University Committee of Animal Research and in accordance with NIH guidelines.

[8] = system: non-erosive OA; conditions: general non-erosive human OA; cited from earlier work
[9] = system: retina; conditions: cited from earlier work; for ophthalmoscopically visualized loss of retinal pigmented epithelium (eye toxicity): treated humans after 5 years
[10] = coadministered with HCQ vs methotrexate alone

In the case of `CC(C)c1c(C(=O)Nc2ccccc2)c(-c2ccccc2)c(-c2ccc(F)cc2)n1CC[C@@H](O)C[C@@H](O)CC(=O)O` [Atorvastatin, atorvastatin], the LDL cholesterol [1] is reported as 115 mg/day, the “number of nuclei in the GCL (viable retinal ganglion cells)” value ([2]; 3 months, vs vehicle, two-tailed t test) is reported as “did not differ” and the “disarrangement of the GCL” value ([2]; HCQ sulfate 100 mg/kg/day and/or atorvastatin calcium 40 mg/kg/day, 3 months) is reported as “no disarrangement”. For the same compound, the “levels of inflammatory cytokines in OA synovium” value [3] was “lower” and the “systemic availability for HMG-CoA reductase activity” value [4] was “approximately 30%”.

For `CN(Cc1cnc2nc(N)nc(N)c2n1)c1ccc(C(=O)N[C@@H](CCC(=O)O)C(=O)O)cc1` [methotrexate], the “maximum methotrexate concentration (Cmax)” value [5, 10] is given as “decreased” and the “mean area under the concentration-time curve (AUC) for methotrexate” value [5, 10] is given as “increased”.

For `CCN(CCO)CCCC(C)Nc1ccnc2cc(Cl)ccc12` (centres unmarked) [HCQ, hydroxychloroquine], the “Oral Bioavailability” value [6] is given as 89%, the T1/2 [6] is given as 41 days and the “Tmax” value [6] is given as 0.083 to 0.12 days. The “Vd” value [6] was 605 L, the “Osteophyte score (osteophyte formation)” value [7] was “not as potent” and the Synovitis score [7] was “not as potent”. The “AUC of HCQ” value ([5]; between dosing occasions) was “no significant difference”, the “disease-modifying or pain-reducing activity” value [8] was “failed to demonstrate” and the “number of nuclei in the GCL (viable retinal ganglion cells)” value ([2]; mouse, in vivo) was “significantly lower”. The “levels of inflammatory cytokines in OA synovium” value [3] was “lower”, the retinal toxicity ([9]; after 5-7 years of use) was ~1% and the “prevalence of retinal toxicity” value ([9]; conventional doses of HCQ (400 mg/day common)) was 6.8 users per 1,000. For the same compound, the “clinically apparent eye toxicity” value ([9]; patients) was “less than 1%”, the “ophthalmoscopically visualized loss of retinal pigmented epithelium (eye toxicity)” value [9] was 1% and the “physician discontinuation for earlier eye problems” value ([9]; treated patients over 5 years) was ~7%.

In the case of `CCN(CC)CCCC(C)Nc1ccnc2cc(Cl)ccc12` (centres unmarked) [chloroquine], the “ophthalmoscopically visualized loss of retinal pigmented epithelium (eye toxicity)” value [9] is listed as “considerably higher”.

Reference: patent US20140066469A1, “TREATMENT OF DISEASES ASSOCIATED WITH INFLAMMATION” (Department of Veterans Affairs, priority 2012, published 2014)
